Experiments:
[1] = test system: K562 cells (human chronic myelogenous leukemia); test: MTT cytotoxicity assay, K562; type: cell-based; conditions: 72 h incubation, mean ± SD
Method: (§1) The cell viability was analyzed at the following six concentrations of compounds: 5, 10, 20, 40, 60 and 100 µM after 72 h incubation.
(§2) Additionally, to determine the safety profile of the tested compounds, the therapeutic index (TI) (the ratio of IC50 value in HaCaT to cancer cells K562) was calculated. […] The goal of conducting the MTT assay in this research was to select benzofuran derivatives, which manage to reduce viability of cancer cells while exposing mild effects on normal healthy cells.
(§3) The cytotoxicity was evaluated by MTT reduction assay, which measures mitochondrial respiratory function. The test was performed based on the method described by Präbst et al.. Cells (1 × 10^4/well), in logarithmic phase, were seeded into 96-well plates in appropriate medium. After 24 h, cells were exposed to test compounds. […] After 72 h, the medium with the compounds was completely removed and MTT solution (0.5 mg/mL) in fresh medium without serum was added to each well. Plates with cells were incubated for 4 h at 37 °C in the dark. Then, MTT solution was removed and replenished with 0.1 mL DMSO: isopropanol (1:1) mixture to dissolve the generated formazan crystals. The optical density was measured with a […] GO (ThermoScientific) microplate reader at 570 nm. Replicates of three wells for each dosage, including vehicle control, were analyzed for each experiment. The experiments were conducted in triplicate. Control cells which were only treated with respective medium were used as the 100% viability value. […] Additionally, to determine the safety profile of the test compounds, therapeutic indexes (TI) (the ratio of IC50 values in HaCat to cancer cells (K562, PC3, SW620, Cack-1)) were calculated.

[2] = test system: reactive oxygen species (H2O2) in K562 cells; test: ROS generation (DHR 123 and DCFH-DA fluorescence); type: cell-based, human; conditions: K562, IC50 concentration, 12 h incubation, DHR123 or DCF-DA, compared with untreated cells
Source text: The resulting data were expressed as mean ± SD from three independent experiments performed in triplicate.

[3] = test system: HaCaT cells (human immortal keratinocytes); test: MTT cytotoxicity assay, HaCaT; type: cell-based; conditions: 72 h incubation, mean ± SD
Method: as §1, §2, §3

[4] = test system: PC3 cells (human metastatic prostate cancer); test: MTT cytotoxicity assay, PC3; type: cell-based; conditions: PC-3, 72 h incubation, mean ± SD
Method: as §1, §2, §3

[5] = test system: IL-6 secretion by K562 cells; test: IL-6 release, ELISA; type: cell-based, human; conditions: for Il-6 Concentration in K562 Cells in 72 h: ELISA, culture medium, IC50 concentration, mean ± SD; for Reduction of the level of IL-6: K562, IC50 concentration, 72 h
Source text: Among many soluble factors present in the plasma and tissue microenvironment in patients with chronic lymphatic leukemia recent studies confirmed a presence of few types of interleukin (IL) including 4, 6 and 10. […] IL-6 is a member of a big family of cytokines and is predominantly excreted by T cells and macrophages to stimulate immune response during infection. Studies have shown that elevated levels of serum IL-6 is positively correlated with worse clinical outcomes in patients with different types of cancer, including leukemia. IL-6 also plays a key role in the chemoresistance of malignancies. Based on these findings we checked the effect of our new benzofuran derivatives on IL-6 secretion by K562 cells. […] On the other hand, K562 cells like other erythroid and megakaryocytic cells release IL-6 in a constitutive way.
K562 cells were treated with IC50 concentrations of the tested compounds. After 72 h, medium was collected and the IL-6 level was measured using an enzyme-linked immunosorbent assay, in accordance with the manufacturer’s protocol. The resulting data were expressed as mean ± SD from three independent experiments performed in triplicate.

[6] = test system: Cacki-1 cells (human clear cell renal cell carcinoma); test: MTT cytotoxicity assay, Cacki-1; type: cell-based; conditions: 72 h incubation
Method: as §1, §2, §3

[7] = test system: standard bacteria strains; test: Antibacterial screening against standard strains (overall statements); type: cell-based; conditions: concentrations 16 to 512 µg/mL
Method: All of the obtained derivatives (1–9) were tested in vitro against a number of bacteria, including representative standard Gram-positive and Gram-negative rods. Compounds were screened for their minimal inhibitory concentrations (MICs).
The antimicrobial studies for all of the obtained compounds were conducted using reference strains of bacteria derived from international microbe collections—the American Type Culture Collection (ATCC) and the National Collection of Type Culture (NCTC). Among the reference strains there were two Gram-negative rods (P. aeruginosa ATCC 15442 and E. coli ATCC 25922) and six Gram-positive isolates (Staphylococcus aureus: NCTC 4163, ATCC 25923, ATCC 6538, ATCC 29213, S. epidermidis ATCC 12228, ATCC 35984). These strains are widely used to determine the activity of antimicrobials and check the drug susceptibility of bacteria, and their use enables comparison of assay results obtained in independent laboratories all over the world.
The antimicrobial activity of compounds was expressed by minimum inhibitory concentration values (MICs), according to CLCI reference procedures with some modifications. MIC was tested by the two-fold serial microdilution method (in 96-well microtiter plates) on MH II liquid medium. The final inoculum of all of the studied bacteria was 10^6 CFU/mL (colony forming unit per mL). […]

Structure (SMILES)	IC50 [1]	Increase of fluorescence intensity (ROS generation) [2]	IC50 [3]	IC50 [4]	Il-6 Concentration in K562 Cells in 72 h [5]	Reduction of the level of IL-6 [5]	IC50 [6]	Antimicrobial activity against the studied strains [7]
CCOc1cccc2oc(C(C)=O)c(CBr)c12 [Compound 8, 1-[3-(Bromomethyl)-4-Ethoxy-1-Benzofuran-2-yl]Ethanone]	2.59 ± 0.88 µM	statistically significant increase of fluorescence intensity	23.6 ± 10.7 µM	7.86 ± 2.62 µM	6.958 ± 3.623	40%	> 100 µM	–
COc1cc(OC)c2c(CBr)c(C(C)=O)oc2c1 [Compound 6, 1-[3-(Bromomethyl)-4,6-Dimethoxy-1-Benzofuran-2-yl]Ethanone]	3.83 ± 0.6 µM	two-fold increase in fluorescence intensity	12.4 ± 1.27 µM	7.02 ± 2.22 µM	5.791 ± 2.048	50%	> 100 µM	did not show antimicrobial properties against the studied strains

— publication PMC10888192, “New Derivatives of 1-(3-Methyl-1-Benzofuran-2-yl)Ethan-1-one: Synthesis and Preliminary Studies of Biological Activity” (International Journal of Molecular Sciences, 2024)
